Measured values reported in PubChem BioAssay AID1259407 (Chemical Carcinogenesis Research Information System (CCRIS), 2018).
Activity calls are given as the source filed them. The rule behind the calls is not given here.

System: CCRIS mutagenicity, Ames/micronucleus/aberration tests
Test: CCRIS mutagenicity studies
Settings: Test System: AMES SALMONELLA TYPHIMURIUM, Method: STANDARD PLATE

## CC1=CC(=C(C#N)C#N)C=C(C=Cc2ccc(N(C)C)cc2)O1
Strain/Indicator: TA96, Metabolic Activation: RAT, LIVER, S-9, AROCLOR 1254
  mutagenic call: active; positive
Strain/Indicator: TA97, Metabolic Activation: RAT, LIVER, S-9, AROCLOR 1254
  mutagenic call: active; positive
Strain/Indicator: TA98, Metabolic Activation: RAT, LIVER, S-9, AROCLOR 1254
  mutagenic call: active; positive
Strain/Indicator: TA100, Metabolic Activation: RAT, LIVER, S-9, AROCLOR 1254
  mutagenic call: active; positive
Strain/Indicator: TA102, Metabolic Activation: RAT, LIVER, S-9, AROCLOR 1254
  mutagenic call: active; positive
Strain/Indicator: TA104, Metabolic Activation: RAT, LIVER, S-9, AROCLOR 1254
  mutagenic call: active; positive
Strain/Indicator: TA1538, Metabolic Activation: NONE
  mutagenic call: inactive; negative
Strain/Indicator: TA1538, Metabolic Activation: RAT, LIVER, MICROSOMES, 3-METHYLCHOLANTHRENE
  mutagenic call: active; positive
Strain/Indicator: TA1538, Metabolic Activation: RAT, LIVER, MICROSOMES, AROCLOR 1254
  mutagenic call: active; positive
Strain/Indicator: TA1538, Metabolic Activation: RAT, LIVER, MICROSOMES, PHENOBARBITAL
  mutagenic call: active; positive
Strain/Indicator: TA1538, Metabolic Activation: RAT, LIVER, MICROSOMES
  mutagenic call: active; positive
Strain/Indicator: TA1538, Metabolic Activation: RAT, LIVER, S-9, AROCLOR 1254
  mutagenic call: active; positive
